# Experimental data from patent publication US20230242616A1, “CHEMOKINE-SELECTIVE CXCR4 ECTODOMAIN-DERIVED (POLY)PEPTIDE” (Ludwig-Maximilians-Universität München, priority 2020, published 2023).
# pIC50: −log10 of the molar value. Values joined by “and” are separate entries in the source; they are usually repeats but may differ in a detail not shown here. Identical values can stand only once.
# Legend:
# [1] = molecular target: T1, human CXCR4 (CXCL12/CXCR4) (Homo sapiens, UniProt P48061); assay: CXCR4-specific signaling in yeast (lacZ reporter), CXCL12-triggered; type: cell-based; settings: 2 μM CXCL12
# T1 construct: expressed in transfected cells; host or cells: S. cerevisiae strain CY12946
# T1 sequence (P48061 22-89 limits assumed): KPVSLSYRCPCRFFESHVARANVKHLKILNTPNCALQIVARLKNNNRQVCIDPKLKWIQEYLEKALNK
# Protocol: CXCR4-specific signaling in a yeast-based cell system. […] Briefly, yeast transformants stably expressing human CXCR4 were grown overnight at 30° C. in yeast nitrogen base selective medium (Formedium, UK). Cells were diluted to an OD600 of 0.2 and grown to an OD600 of 0.3-0.6. […] OD600 was measured and activation of CXCR4 signaling quantified by β-galactosidase activity using a commercial BetaGlo Kit (Promega, Mannheim, Germany).
# [2] = test system: primary mouse spleen B lymphocytes; assay: Transwell chemotaxis of B cells elicited by MIF; type: cell-based; settings: 16 nM MIF
# Protocol: (§1) Chemotaxis analysis of murine B cells. A Transwell-based assay was used as described previously^34. Briefly, splenic B cells were isolated by negative depletion using a Pan B Cell Isolation Kit (Miltenyi Biotec. Bergisch Gladbach, Germany). Purity of the cells was between 95 and 99%. […] Chemotaxis was followed for 4 h at 37° C. in a humidified atmosphere of 5% CO2. Migrated cells were counted by flow cytometry using CountBright™ Absolute Counting Beads (Molecular Probes-Invitrogen).
# [3] = test system: primary mouse spleen B lymphocytes; assay: Transwell chemotaxis of B cells elicited by CXCL12; type: cell-based
# Protocol: as §1
# human monocytes = assay: 3D migration of monocytes elicited by CXCL12; type: cell-based; settings: 5-fold molar excess
# Description: Isolation of human peripheral blood-derived monocytes. Human peripheral blood-derived monocytes were isolated as described^14. Briefly, blood was collected from healthy donors or buffy coat obtained from the blood bank of Munich University Hospital, mixed 1:1 with PBS, and PBMCs isolated by Ficoll-Paque Plus gradient (GE Healthcare). Monocytes were purified by negative depletion using the Monocyte Isolation Kit II (Miltenyi). Monocyte purity was verified by flow cytometry using an anti-CD14 antibody (Miltenyl) and was 95-98%. […] The isolation of PBMCs from donor blood was approved by the local ethics committee of LMU Munich. 3D migration of human peripheral blood-derived monocytes by time-lapse microscopy. The 3D-migration behavior of human monocytes was assessed by time-lapse microscopy and individual cell tracking using the 3D chemotaxis μ-Slide system from Ibidi GmbH (Munich, Germany), adapting the established Ibidi dendritic cell protocol for human monocytes. […] Cell motility was monitored performing time-lapse imaging every 1 min at 37° C. for 2 h using a Leica inverted DMi8-Life Cell Imaging System equipped with a DMC2900 Digital Microscope Camera with CMOS sensor and live cell-imaging software (Leica Microsystems, Wetzlar, Germany). Images were imported as stacks to ImageJ software and analyzed with the manual tracking and chemotaxis/migration tools (Ibidi GmbH).
# Apoe−/− mice on HFD = assay: Cytokine array on plasma of treated mice; type: in vivo, mouse; settings: reductions for IFN-γ, IL-1α, IL-16, TNF-α, CXCL13/BLC
# Protocol: Cytokine array. Cytokine/chemokine profiling was performed from plasma samples of msR4M-L1-versus vehicle-treated Apoe^−/− mice using mouse cytokine array panel A (R&D Systems, ARY006) according to the manufacturer's instructions. Plasma samples were diluted (1:10) in array buffer; incubated with antibody detection cocktail for 1 h at RT, exposed to the blocked membranes (overnight, 4° C.), membranes washed and incubated with streptavidin-HRP conjugate working solution (30 min, RT). Membranes were developed with Chemi-Reagent Mix and analyzed by Odyssey® Fc imager. The average signal (pixel density) of duplicate spots was quantified by ImageJ.
# [4] = Blood cell counts, lipid levels and body weight of treated mice; type: in vivo, mouse
# Description: Blood cell counts, triglycerides and cholesterol levels. […] APC-conjugated anti-CD19, FITC-conjugated anti-CD3.
# [5] = test system: Apoe−/− mice with established plaques; assay: Regression model of atherosclerosis; type: in vivo, mouse
# Description: Control mice received saline. Mice were sacrificed after 9 weeks and vessel tissues prepared for plaque, cell, and macrophage staining. A. C, E, staining of aortic root sections with oil red O (ORO), hematoxylin eosin (HE), and anti-CD68, respectively. G, staining of aortic arch with HE. B, D, F, H, respective quantifications from 14 mice per group. Statistics: two-tailed, unpaired Mann-Whitney test; *, P<0.05; **, P<0.01.
# To further test the therapeutic applicability of msR4M-L1, an in vivo test in a “regression setting” was applied to mimic the patient situation, who is typically seen by a physician only when symptoms occur. The real-life situation is thus one in which preformed plaques already exist, when a patient starts treatment. A regression model therefore better mimics the situation in patient with pre-existing atherosclerotic disease.
# In a pilot study, atherogenic ApoE−/− mice were put on Western diet for 4.5 wks.
compound,measurement,setting,value
CC[C@H](C)[C@H](NC(=O)[C@H](Cc1ccc(O)cc1)NC(=O)[C@H](CCCNC(=N)N)NC(=O)[C@H](CC(=O)O)NC(=O)CCCCCCCCCCCNC(=O)CCCCCNC(=O)[C@H](CCCCN)NC(=O)[C@H](CS)NC(=O)[C@H](CC(C)C)NC(=O)[C@H](Cc1ccccc1)NC(=O)[C@H](CC(N)=O)NC(=O)CNC(=O)[C@H](Cc1ccccc1)NC(=O)[C@H](Cc1ccc(O)cc1)NC(=O)[C@H](Cc1c[nH]c2ccccc12)NC(=O)[C@H](CC(N)=O)NC(=O)[C@H](C)NC(=O)[C@@H](NC(=O)[C@H](C)NC(=O)[C@@H](N)CC(=O)O)C(C)C)C(=O)N[C@@H](CS)C(=O)N[C@@H](CC(=O)O)C(=O)N[C@@H](CCCNC(=N)N)C(=O)N[C@@H](Cc1ccccc1)C(=O)N[C@@H](Cc1ccc(O)cc1)C(=O)N1CCC[C@H]1C(=O)N[C@@H](CC(N)=O)C(=O)N[C@@H](CC(=O)O)C(=O)N[C@@H](CC(C)C)C(=O)N[C@@H](Cc1c[nH]c2ccccc12)C(=O)N[C@H](C(N)=O)C(C)C [msR4M-L1],effect on CXCL12/CXCR4-elicited signaling,[1],remained unaffected
same,inhibition of MIF-mediated B-cell chemotaxis,[2],fully blocked
same,molar excess over MIF at maximal inhibition,[2],5 -fold molar excess
same,pIC50,[2]; read-out: IC50 of MIF-mediated B-lymphocyte chemotaxis,8.00 and 7.82 to 8.00
same,effect on CXCL12-elicited B-cell chemotaxis,[3],unable to inhibit chemotaxis elicited by CXCL12
same,effect on CXCL12-induced cell motility,human monocytes,remained unaffected
same,circulating inflammatory cytokine levels,Apoe−/− mice on HFD,marked reduction
same,Leukocytes,"[4]; Apoe−/− mice, HFD 4.5 weeks",4632 ± 286 per μL
same,Lymphocytes,"[4]; Apoe−/− mice, HFD 4.5 weeks",2347 ± 50 per μL
same,Monocytes,"[4]; Apoe−/− mice, HFD 4.5 weeks",552 ± 51 per μL
same,Neutrophils,"[4]; Apoe−/− mice, HFD 4.5 weeks",1897 ± 46 per μL
same,Triglycerides,"[4]; Apoe−/− mice, HFD 4.5 weeks",156.7 ± 3.8 mg/dL
same,Weight,"[4]; Apoe−/− mice, HFD 4.5 weeks",22.3 ± 0.2 g
same,Cholesterol,"[4]; Apoe−/− mice, HFD 4.5 weeks, means ± SD",647.4 ± 19.2 mg/dL
same,"effect on body weight, plasma total cholesterol, triglyceride levels, blood leukocyte counts","[4]; mouse, in vivo",did not observe any effect
same,"plaque load, pilot regression study","[5]; 4-5 mice per group, 50 μg/mouse, 3× per week",decreased plaque load (trend)
same,"atherosclerotic plaques (ORO and HE aortic root, HE aortic arch), regression study",[5]; 14 mice per group,leads to a regression of atherosclerotic plaques
same,"intralesional inflammation, CD68+ macrophage area",[5]; 14 mice per group,reduced
